# Test results from patent EP0427518B1, “NMDA-Blocking compounds, pharmaceutical compositions, their preparation and use” (priority 1989, dated 1991).
# Columns and labels:
# C-57 Black mice = assay: Inhibition of tremorogenic, convulsive and lethal effects of NMDA in C-57 Black mice; type: in vivo
# Procedure: Sabra mice (an Israeli heterogenous strain) were pretreated with either vehicle alone (control) or HU-211 (1.25 or 2.50 mg/kg; s.c.), followed by NMDA (200 mg/kg; s.c.). […] Similar experiments were performed using C-57 Black mice, in which the dose of NMDA was decreased (100 mg/kg; s.c.). Counteraction by HU-211 of the NMDA-induced effects was more pronounced in the latter strain (which is more sensitive than Sabra mice to the effects of NMDA). In the control series of both strains, which received NMDA without HU-211, all animals died in less than 10 min. following seizure onset.
# The experiments described in Table 2 were repeated with C-57 Black mice, HU-211 replaced by the compound of formula (II) (compound Vb, U.S. Patent No. 4,179,517) and the compound of formula (IIa)(compound XIb, ibid.). NMDA (100 mg/kg) was administered to the mice.
# In addition, the experiments were repeated with the novel compound HU-247.
# [1] = even at doses several thousand times higher than ED₅₀ of HU-210; cited from earlier work
# Sabra mice [2] = assay: Induction of stereotypy (stereotypy gradient of Feigenbaum et al.); type: in vivo; details: for Stereotypy Gradient: HU-211 2.5 mg/kg s.c., mean ±SEM
# Text: (§1) As will be shown hereafter, the pharmacological profile of HU-211, and other compounds constituting the active ingredients of the present compositions, includes the induction of stereotypy, locomotor hyper-activity and tachycardia in mice (Table 1). […] This possibility was explored by examining the activity of the compounds in protecting against the tremorogenic, convulsive and lethal effects of NMDA and NMDA agonists in mice. Such effects are counteracted by virtually all NMDA antagonists.
# BALB/C mice = assay: Protection against strychnine toxicity; type: in vivo; details: Strychnine 1 mg/kg s.c.; vehicle Emulphor; HU-211 10 mg/kg; 75 min post HU-211
# Procedure: BALB/C mice (20 g) were subcutaneously injected with picrotoxin, strychnine and NMDA in doses of about LD₉₀ and subsequent clinical observations for the occurrence of convulsions and death were carried out within 20 min. The number of mice used and the mortality were assessed at the highest doses administered.
# Sabra mice [3] = assay: Induction of tachycardia (heart rate); type: in vivo; details: HU-211 2.5 mg/kg s.c., mean ±SEM
# Text: as §1
# NMDA receptor = assay: Kinetics of basal and glutamate/glycine-induced [³H]TCP binding to rat brain cortical membranes
# Procedure: Kinetic experiments were then performed in order to determine whether HU-211 exerts its behavioral effects by acting directly at the glutamate- or the glycine-binding sites of the NMDA receptor.
# Like the competitive NMDA antagonist aminophosphovalerate (AP-5), HU-211 reduces the glutamate/glycine potentiation of [³H]TCP binding.
# HU-211 reduces the rate of binding of [³H]TCP to the NMDA-receptor channel and the rate of dissociation of [³H]TCP-receptor complexes. • A) Time course of basal (without added agonist) and induced with 1 »M L-glutamate and 1 »M glycine) [³H]TCP binding to the NMDA receptor of rat brain cortical membranes. Data represent the basal binding determined in the absence (●) and in the presence (▲) of 10 »M HU-211, and the induced binding determined in the absence (o) and in the presence (△) of 10 »M HU-211. Binding of [³H]TCP to well-washed control membranes was determined under the following conditions: membranes (80 »g protein) were incubated at 25°C in 200 »l HEPES buffer, pH 7.4, containing 5 nM [³H]TCP (total binding) or 5 nM [³H]TCP and 100 »M PCP (phencyclidine) (nonspecific binding), and the reactions were terminated at the indicated times by rapid filtration over polyethyleneimine-treated GF/C filters. The filters were counted in scintillation liquid (Hydroluma, Lumac Inc., Netherlands). HU-211 was prepared as described elsewhere [Mechoulam, R., et al., Tetrahedron:Asymmetry, 1:315-319 (1990)]. Means values (triplicates) of the specific binding of [³H]TCP (total minus non-specific binding) are plotted as a function of the incubation time. The data shown are from one of three experiments that gave similar results. • (B-C) First-order plots of the basal (B) and the induced (C) dissociation of [³H]TCP-receptor complexes. Data represent the basal (without added agonist) dissociation rates determined in the absence (●) and in the presence (▲) of 10 »M HU-211; the induced (with 1 »M L-glutamate and 1 »M glycine) dissociation rates were determined in the absence (o) and in the presence (△) of 10 »M HU-211. Samples were preincubated as described for Figure 2A, at 25°C with 18 nM [³H]TCP for 2 h. Basal dissociation reactions were initiated by the addition of 100 »M unlabeled PCP with or without 10 »M HU-211. For the induced dissociation reactions 1 »M glutamate and 1 »M glycine were also added. Reactions were terminated either immediately (zero time) or at the indicated times. Beq, amount of [³H]TCP bound at zero time. Bt, amount of [³H]TCP boud at time t. […]
# Data represent the concentration-dependent decrease of [³H]TCP binding by HU-211 (o) and by its isomer HU-210 (△). Binding of [³H]TCP (5 nM) was determined as described for Figure 2A, either in the absence (basal) or in the presence (induced) of 1 »M glutamate (A) or of 1 »M glycine (B).
# Reactions were terminated after 10 min. Data are expressed as induced over basal binding as a function of isomer concentrations. […]
# Non-competitive inhibition of glutamate- or glycine-induced [³H]TCP binding by HU-211. Induced [³H]TCP binding, corresponding to the ratio of binding in the presence of glutamate or glycine to binding in their absence, was determined with 5 nM [³H]TCP at 25°C for 10 min. Binding of (³H)TCP to well-washed rat cortical membranes was determined in triplicate, as described previously [Kloog, Y., et al., Biochemistry, 27: 843-848 (1988)], in the absence (basal) and presence of various concentrations of L-glutamate (a) or glycine (b) with and without HU-211, as indicated. […]
# [4] = C-57 Black mice, HU-211 1.25 mg/kg s.c. 75 min prior to NMDA 100 mg/kg s.c.
# [5] = C-57 Black mice, HU-211 2.50 mg/kg s.c. 75 min prior to NMDA 100 mg/kg s.c.
compound,measurement,setting,value
"CCCCCCC(C)(C)c1cc(O)c2c(c1)OC(C)(C)[C@H]1CC=C(CO)C[C@H]21 [HU-211, (+)-(3S,4S)-1,1-dimethylheptyl homolog of 7-hydroxy-Δ⁶-tetrahydrocannabinol]",mice that exhibited no tremors or seizures and stayed alive for more than four days following NMDA administration,"C-57 Black mice; C-57 Black mice pretreated with HU-211 (2.50 mg/kg s.c.), NMDA 100 mg/kg s.c.",six of the seven
same,Time until death,C-57 Black mice; [4],18.6 ± 4.2 min
same,Time until first seizure,C-57 Black mice; [4],13.2 ± 2.6 min
same,Time until first tremor,C-57 Black mice; [4],12.0 ± 2.6 min
same,Time until death,C-57 Black mice; [5],>5800 min
same,Time until first seizure,C-57 Black mice; [5],5800 min
same,Time until first tremor,C-57 Black mice; [5],>5800 min
same,persistence of the anti-NMDA effects,"C-57 Black mice; C-57 Black mice, repeated NMDA 100 mg/kg one day later in the six surviving mice, preliminary results",more than 24 h
same,"blockade of NMDA-induced tremor, seizure and lethality","C-57 Black mice; at about 2.5 mg/kg body weight, summary statement, mouse strain not given",potent blockers
same,cannabimimetic activity,[1],inactive
same,Stereotypy Gradient,Sabra mice [2]; time 0 min,0.4±0.1
same,Stereotypy Gradient,Sabra mice [2]; time 15 min,1.3±0.2
same,Stereotypy Gradient,Sabra mice [2]; time 30 min,2.2±0.1
same,Stereotypy Gradient,Sabra mice [2]; time 45 min,0.7±0.2
same,Stereotypy Gradient,Sabra mice [2]; time 60 min,0.6±0.3
same,"induction of stereotypy, locomotor hyperactivity and tachycardia","Sabra mice [2]; at about 25 mg/kg body weight, summary statement covering stereotypy, locomotor and heart rate tests, mice","induce stereotypy, locomotor hyperactivity and tachycardia"
same,% alive,BALB/C mice,80%
same,No.alive total,BALB/C mice,8/10
same,Heart Rate,Sabra mice [3]; time 0 min,169.2±2.5 per min
same,Heart Rate,Sabra mice [3]; time 75 min,186.8±2.5 per min
same,dissociation rate of [³H]TCP from the NMDA receptor,"NMDA receptor; 10 »M HU-211, both in absence and presence of 1 »M glutamate and 1 »M glycine, much more strongly in their presence",decreased the dissociation rate
same,inhibition of the induced [³H]TCP binding compared with the (-)enantiomer HU-210,"NMDA receptor; Figure 3, stereospecificity",far more potent inhibitor
same,efficacy of glutamate- or glycine-induced [³H]TCP binding,"NMDA receptor; HU-211 10 and 5 »M, apparent affinities of glutamate and glycine not altered",reduced the efficacy
same,rate of association of [³H]TCP binding to the NMDA receptor,"NMDA receptor; basal (no added agonist), 10 »M HU-211",only a small decrease
same,association rate of [³H]TCP binding,"NMDA receptor; induced: 1 »M glutamate and 1 »M glycine, 10 »M HU-211",marked decrease
